In ChEMBL document CHEMBL5579820, “New insights into butyrylcholinesterase: Pharmaceutical applications, selective inhibitors and multitarget-directed ligands” (Eur J Med Chem, 2024):
Several values for one entry are separate records, joined by “and”; a condition that tells them apart may be missing. Equal entries are not always repeated.

Key:
Acetylcholinesterase [1] = target: T1, Acetylcholinesterase (Electrophorus electricus, UniProt O42275); assay: Inhibition of electric eel AChE using acetylthiocholine iodide as substrate after 60 mins by Ellman's method
T1 sequence (O42275 whole entry): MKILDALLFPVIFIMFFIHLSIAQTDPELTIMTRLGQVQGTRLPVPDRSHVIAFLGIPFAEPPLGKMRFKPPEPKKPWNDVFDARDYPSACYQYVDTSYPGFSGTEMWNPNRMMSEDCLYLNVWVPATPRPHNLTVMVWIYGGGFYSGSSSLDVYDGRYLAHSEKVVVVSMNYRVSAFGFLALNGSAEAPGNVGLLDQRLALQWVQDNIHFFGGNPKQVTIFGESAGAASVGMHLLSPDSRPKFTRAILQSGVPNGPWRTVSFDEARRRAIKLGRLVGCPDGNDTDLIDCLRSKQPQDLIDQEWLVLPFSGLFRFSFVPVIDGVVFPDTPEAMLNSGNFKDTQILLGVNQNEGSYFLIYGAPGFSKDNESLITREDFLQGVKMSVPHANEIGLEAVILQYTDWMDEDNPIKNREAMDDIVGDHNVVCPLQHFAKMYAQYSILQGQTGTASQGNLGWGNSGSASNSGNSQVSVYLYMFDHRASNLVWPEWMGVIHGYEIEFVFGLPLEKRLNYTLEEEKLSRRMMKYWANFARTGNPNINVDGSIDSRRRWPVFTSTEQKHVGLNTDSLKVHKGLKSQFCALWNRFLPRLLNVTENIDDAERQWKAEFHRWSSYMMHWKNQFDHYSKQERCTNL

Cholinesterase [2] = target: T2, Cholinesterase (Equus caballus, UniProt P81908); assay: Inhibition of equine serum BuChE by Ellman's method
T2 sequence (P81908 whole entry): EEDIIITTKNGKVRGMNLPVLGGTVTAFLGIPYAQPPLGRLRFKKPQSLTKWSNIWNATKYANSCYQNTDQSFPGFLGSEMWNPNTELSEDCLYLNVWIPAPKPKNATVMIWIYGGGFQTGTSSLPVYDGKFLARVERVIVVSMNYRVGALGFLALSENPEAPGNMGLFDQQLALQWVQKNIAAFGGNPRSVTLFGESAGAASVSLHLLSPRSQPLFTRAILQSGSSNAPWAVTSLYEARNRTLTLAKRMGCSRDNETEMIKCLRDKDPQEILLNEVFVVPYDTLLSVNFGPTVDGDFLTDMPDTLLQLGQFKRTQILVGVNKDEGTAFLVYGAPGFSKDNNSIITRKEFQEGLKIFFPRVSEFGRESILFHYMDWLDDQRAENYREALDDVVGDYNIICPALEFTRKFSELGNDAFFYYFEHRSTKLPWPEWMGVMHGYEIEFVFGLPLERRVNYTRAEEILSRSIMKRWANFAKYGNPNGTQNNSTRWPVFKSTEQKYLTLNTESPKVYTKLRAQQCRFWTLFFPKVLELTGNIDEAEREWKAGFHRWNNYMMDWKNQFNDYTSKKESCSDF

Acetylcholinesterase [3] = target: T3, Acetylcholinesterase (Homo sapiens, UniProt P22303); assay: Inhibition of AChE (unknown origin)
T3 sequence (P22303 whole entry): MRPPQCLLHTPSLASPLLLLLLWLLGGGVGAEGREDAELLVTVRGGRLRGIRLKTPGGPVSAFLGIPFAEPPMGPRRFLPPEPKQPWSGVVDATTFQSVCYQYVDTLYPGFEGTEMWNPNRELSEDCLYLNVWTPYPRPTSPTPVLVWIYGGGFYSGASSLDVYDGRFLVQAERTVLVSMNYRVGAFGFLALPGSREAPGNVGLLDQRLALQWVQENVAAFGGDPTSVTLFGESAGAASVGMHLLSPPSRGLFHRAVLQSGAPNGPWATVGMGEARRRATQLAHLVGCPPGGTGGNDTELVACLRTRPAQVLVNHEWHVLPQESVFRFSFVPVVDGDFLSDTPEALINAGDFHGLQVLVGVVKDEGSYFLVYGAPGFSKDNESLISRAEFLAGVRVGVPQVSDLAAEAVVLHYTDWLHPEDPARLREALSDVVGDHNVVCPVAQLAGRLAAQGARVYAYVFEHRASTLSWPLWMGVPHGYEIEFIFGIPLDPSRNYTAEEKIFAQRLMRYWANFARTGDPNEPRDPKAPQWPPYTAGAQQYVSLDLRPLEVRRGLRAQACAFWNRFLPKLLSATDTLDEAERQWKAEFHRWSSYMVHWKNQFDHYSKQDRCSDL

Cholinesterase [4] = target: T4, Cholinesterase (Homo sapiens, UniProt P06276); assay: Inhibition of BChE (unknown origin)
T4 sequence (P06276 whole entry): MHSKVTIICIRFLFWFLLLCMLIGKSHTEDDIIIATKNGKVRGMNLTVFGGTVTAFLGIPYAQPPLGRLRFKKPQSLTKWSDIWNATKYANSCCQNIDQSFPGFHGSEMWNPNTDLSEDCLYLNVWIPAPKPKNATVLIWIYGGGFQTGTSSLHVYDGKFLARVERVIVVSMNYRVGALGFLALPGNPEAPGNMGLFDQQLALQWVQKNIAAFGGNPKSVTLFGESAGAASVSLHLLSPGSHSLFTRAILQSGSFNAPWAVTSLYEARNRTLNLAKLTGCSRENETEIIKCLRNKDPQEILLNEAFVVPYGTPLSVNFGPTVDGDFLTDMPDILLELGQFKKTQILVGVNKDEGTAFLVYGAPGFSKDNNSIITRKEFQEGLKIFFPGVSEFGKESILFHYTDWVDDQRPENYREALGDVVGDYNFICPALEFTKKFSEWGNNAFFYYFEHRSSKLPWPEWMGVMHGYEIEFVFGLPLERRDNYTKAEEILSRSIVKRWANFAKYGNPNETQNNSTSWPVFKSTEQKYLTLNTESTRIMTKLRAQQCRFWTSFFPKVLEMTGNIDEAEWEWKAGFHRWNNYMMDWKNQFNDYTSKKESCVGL

Acetylcholinesterase [5] = target: T3, Acetylcholinesterase; assay: Inhibition of human AChE using acetylthiocholine iodide as substrate after 15 mins by Ellman's method
Cholinesterase [6] = target: T2, Cholinesterase; assay: Inhibition of equine BuChE
[7] = target: T5, Amine oxidase [flavin-containing] A (Homo sapiens, UniProt P21397); assay: Inhibition of human recombinant MAO-A using kynuramine as substrate by incubated for 75 mins by spectrophotometric analysis
T5 sequence (P21397 whole entry): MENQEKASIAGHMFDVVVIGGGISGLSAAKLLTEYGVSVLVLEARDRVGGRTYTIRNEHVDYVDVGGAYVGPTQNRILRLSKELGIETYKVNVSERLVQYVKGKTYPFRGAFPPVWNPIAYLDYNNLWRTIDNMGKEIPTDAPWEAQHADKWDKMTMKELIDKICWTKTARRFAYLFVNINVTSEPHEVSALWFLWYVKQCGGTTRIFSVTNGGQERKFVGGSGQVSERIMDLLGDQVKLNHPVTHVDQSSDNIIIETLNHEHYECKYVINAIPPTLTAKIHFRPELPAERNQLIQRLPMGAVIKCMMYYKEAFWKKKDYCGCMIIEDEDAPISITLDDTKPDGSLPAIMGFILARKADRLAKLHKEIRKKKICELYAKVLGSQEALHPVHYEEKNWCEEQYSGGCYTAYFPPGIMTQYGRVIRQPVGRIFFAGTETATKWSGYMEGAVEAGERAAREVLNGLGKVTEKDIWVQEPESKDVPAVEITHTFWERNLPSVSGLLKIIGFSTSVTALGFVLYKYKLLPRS

Acetylcholinesterase [8] = target: T1, Acetylcholinesterase; assay: Inhibition of electric eel AChE
[9] = Selectivity index, ratio of IC50 for electric eel AChE to IC50 for equine serum BuChE
Acetylcholinesterase [10] = target: T3, Acetylcholinesterase; assay: Inhibition of human AChE at 15 uM relative to control
Cholinesterase [11] = target: T4, Cholinesterase
Acetylcholinesterase [12] = target: T3, Acetylcholinesterase; assay: Binding affinity to AChE (unknown origin) assessed as inhibition constant
Cholinesterase [13] = target: T4, Cholinesterase; assay: Binding affinity to BChE (unknown origin) assessed as inhibition constant
[14] = target: Cholinesterase (Equus caballus) (UniProt P81908); assay: Inhibition of equine BChE at 100 uM by Ellman's method relative to control
Cholinesterase (Equus caballus), sequence (P81908 whole entry): as the sequence (P81908 whole entry) above

[15] = target: Acetylcholinesterase (Electrophorus electricus) (UniProt O42275); assay: Inhibition of electric eel AChE using acetylthiocholine iodide as substrate at 50 uM by Ellman's method relative to control
Acetylcholinesterase (Electrophorus electricus), sequence (O42275 24-633 limits assumed): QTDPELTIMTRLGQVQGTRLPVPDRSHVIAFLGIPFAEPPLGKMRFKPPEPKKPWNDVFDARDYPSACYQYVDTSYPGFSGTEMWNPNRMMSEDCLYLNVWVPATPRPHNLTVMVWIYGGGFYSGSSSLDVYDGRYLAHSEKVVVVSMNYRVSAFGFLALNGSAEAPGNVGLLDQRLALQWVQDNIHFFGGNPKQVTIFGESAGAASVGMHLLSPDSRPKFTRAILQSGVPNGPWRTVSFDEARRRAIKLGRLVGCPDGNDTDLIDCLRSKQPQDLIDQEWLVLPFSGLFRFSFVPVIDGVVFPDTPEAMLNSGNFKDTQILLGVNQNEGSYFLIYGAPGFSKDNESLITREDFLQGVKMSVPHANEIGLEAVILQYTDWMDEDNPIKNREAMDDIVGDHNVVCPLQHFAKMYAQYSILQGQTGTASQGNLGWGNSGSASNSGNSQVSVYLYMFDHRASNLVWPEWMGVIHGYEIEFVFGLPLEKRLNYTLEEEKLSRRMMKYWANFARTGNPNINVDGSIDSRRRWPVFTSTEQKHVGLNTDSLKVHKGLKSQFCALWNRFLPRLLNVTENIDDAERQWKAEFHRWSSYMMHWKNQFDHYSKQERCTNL

[16] = target: Amyloid-beta precursor protein (Homo sapiens) (UniProt P05067); assay: Inhibition of self induced amyloid-beta aggregation (1 to 42 residues) (unknown origin) at 20 uM by ThT fluorescence based spectrofluorimetric analysis relative to control
Amyloid-beta precursor protein (Homo sapiens), sequence (P05067 whole entry, the tested form may be a part): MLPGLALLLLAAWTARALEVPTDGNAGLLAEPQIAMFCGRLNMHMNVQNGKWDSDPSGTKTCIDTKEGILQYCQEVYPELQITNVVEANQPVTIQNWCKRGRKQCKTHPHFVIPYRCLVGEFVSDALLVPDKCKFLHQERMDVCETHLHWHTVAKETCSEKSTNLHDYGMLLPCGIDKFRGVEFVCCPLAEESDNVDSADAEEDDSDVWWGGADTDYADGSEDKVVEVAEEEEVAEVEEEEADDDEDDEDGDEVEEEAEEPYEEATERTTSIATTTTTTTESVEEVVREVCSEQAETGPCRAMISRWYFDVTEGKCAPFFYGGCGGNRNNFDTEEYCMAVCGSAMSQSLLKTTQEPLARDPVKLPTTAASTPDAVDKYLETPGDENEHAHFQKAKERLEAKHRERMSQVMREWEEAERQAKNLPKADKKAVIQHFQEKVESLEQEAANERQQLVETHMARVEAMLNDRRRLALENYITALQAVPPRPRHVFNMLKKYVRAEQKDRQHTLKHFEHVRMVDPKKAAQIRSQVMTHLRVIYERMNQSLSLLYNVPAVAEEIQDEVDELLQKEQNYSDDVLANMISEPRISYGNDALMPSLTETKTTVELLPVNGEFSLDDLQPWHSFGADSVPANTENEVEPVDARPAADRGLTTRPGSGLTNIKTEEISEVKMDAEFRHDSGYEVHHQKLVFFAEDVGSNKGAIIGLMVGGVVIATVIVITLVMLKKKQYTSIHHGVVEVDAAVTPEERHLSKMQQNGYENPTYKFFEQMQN

Acetylcholinesterase [17] = target: T3, Acetylcholinesterase; assay: Inhibition of AChE (unknown origin) using acetylthiocholine iodide as substrate preincubated for 15 min followed by substrate addition and measured after 60 min by Ellman's method
Cholinesterase [18] = target: T4, Cholinesterase; assay: Inhibition of human BChE using butyrylthiocholineiodide as substrate measured for 30 mins by Ellman's method
[19] = Selectivity index, ratio of IC50 for human erythrocyte AChE to IC50 for equine BuChE
[20] = Selectivity index, ratio of IC50 for human AChE using acetylthiocholine iodide as substrate to IC50 for equine serum BuChE using butyrylthiocholine iodide as substrate
Acetylcholinesterase [21] = target: T3, Acetylcholinesterase
Acetylcholinesterase [22] = target: T1, Acetylcholinesterase; assay: Inhibition of Electric eel AChE using […] as substrate by spectrophotometry based Ellman's method
[23] = Inhibition of equine serum BChE using butyrylthiocholine iodide as substrate by Ellman's method; set-up: species or system Equus caballus

Structure (SMILES): COc1ccc2c(c1)CC/C(=C\c1ccc[n+](Cc3ccc(Br)cc3)c1)C2=O
- IC50 (Acetylcholinesterase [1]): 17600 nM
- IC50 (Cholinesterase [2]): 883 nM

Structure (SMILES): Cc1ccc(/C=N/NC(=O)Cn2c(=O)sc3ccccc32)s1
- IC50 (Acetylcholinesterase [3]): > 40000 nM
- IC50 (Cholinesterase [4]): 1380 nM

Structure (SMILES): O=C(NCCCCCCNc1c2c(nc3ccccc13)CCCC2)c1ccccc1O
- IC50 (Acetylcholinesterase [5]): 20 nM
- IC50 (Cholinesterase [6]): 10 nM

Structure (SMILES): [O-]/[N+](=C\c1ccc2cccc(O)c2n1)Cc1ccccc1
- IC50 [7]: > 100000 nM

Structure (SMILES): CCCCCCNC(=O)Oc1ccc2[nH]cc(CCNC(=O)c3ccccc3Nc3ccccc3)c2c1
- IC50 (Cholinesterase [6]): 7 nM
- IC50 (Acetylcholinesterase [8]): > 100000 nM
- Ratio IC50 [9]: > 14300

Structure (SMILES): CON(C)C(=O)Oc1cc(C)ccc1C(=O)NCCc1c[nH]c2ccc(Cl)cc12
- IC50 (Cholinesterase [6]): 57 nM
- IC50 (Acetylcholinesterase [8]): > 100000 nM
- Ratio IC50 [9]: > 1750

Structure (SMILES): CCCCCCNC(=O)Oc1ccc2c(c1)CN1CCc3ccc(/N=N\c4ccccc4)cc3C1N2C (stereo unspecified)
- inhibition (Acetylcholinesterase [10]): 54.9%
- IC50 (Cholinesterase [11]): 44 nM

Structure (SMILES): O=C(Oc1cc(OC(=O)N2CCCCC2)cc(C(O)CN2CCCCC2)c1)N1CCCCC1 (stereo unspecified)
- Ki (Acetylcholinesterase [12]): 6930 nM
- Ki (Cholinesterase [13]): 11 nM

Structure (SMILES): CCC(CC)CN[C@H](Cc1c[nH]c2ccccc12)C(=O)NCCN1CCc2ccccc2C1
- IC50 (Acetylcholinesterase [8]): > 10000 nM
- IC50 (Cholinesterase [11]): 300 nM

Structure (SMILES): NNc1nc(NN)nc(NCCNC(=O)c2cc3c([nH]c4ccccc43)c(-c3ccccc3)n2)n1
- IC50 (Cholinesterase [6]): 1000 nM
- inhibition [14]: 29.5%

Structure (SMILES): Fc1ccc2c(c1)c1c(n2CCN2CCCCC2)CCCC1
- IC50 (Cholinesterase [6]): 110 nM
- IC50 (Acetylcholinesterase [8]): > 100000 nM

Structure (SMILES): O=C(Nc1ccccc1Cl)C(NS(=O)(=O)c1ccccc1)c1ccccc1 (stereo unspecified)
- IC50 (Cholinesterase [6]): 7330 nM
- inhibition [15]: 1.62%

Structure (SMILES): CCN(C)C(=O)Oc1ccc(CCCNC(=O)c2cccc3[nH]c(-c4ccccc4O)nc23)cc1
- inhibition [16]: 60.8%

Structure (SMILES): c1ccc(-c2nn(-c3ccccc3)cc2-c2nc(-c3ccccc3)c(-c3ccccc3)n2-c2ccccc2)cc1
- IC50 (Acetylcholinesterase [17]): 41200 nM
- IC50 (Cholinesterase [18]): 350 nM

Structure (SMILES): CCCCCCNC(=O)Oc1ccc2c(c1)CN1CCc3ccc(/N=N/c4ccccc4)cc3C1N2C (stereo unspecified)
- inhibition (Acetylcholinesterase [10]): 28.5%

Structure (SMILES): CC(C)(C)c1cc(CNCCNc2c3c(nc4ccccc24)CCCCC3)cc(C(C)(C)C)c1O
- Ratio IC50 [19]: 23

Structure (SMILES): CCc1ccccc1NC(=O)c1ccc(NS(=O)(=O)c2ccccc2)cc1
- Ratio IC50 [20]: > 1080
- IC50 (Cholinesterase [6]): 46 nM and 40 nM
- inhibition [15]: 0.52%
- IC50 (Acetylcholinesterase [21]): > 50000 nM

Structure (SMILES): Cc1ccc(-c2nc3cc(C(=O)Nc4ccc(O)cc4)ccc3[nH]2)cc1
- IC50 (Acetylcholinesterase [22]): > 100000 nM
- IC50 [23]: 1130 nM
